The target in the assay is T1, human recombinant P2X7 receptors (Homo sapiens, UniProt Q99572).
T1 construct: expressed in transfected cells
T1 sequence (Q99572 1-595): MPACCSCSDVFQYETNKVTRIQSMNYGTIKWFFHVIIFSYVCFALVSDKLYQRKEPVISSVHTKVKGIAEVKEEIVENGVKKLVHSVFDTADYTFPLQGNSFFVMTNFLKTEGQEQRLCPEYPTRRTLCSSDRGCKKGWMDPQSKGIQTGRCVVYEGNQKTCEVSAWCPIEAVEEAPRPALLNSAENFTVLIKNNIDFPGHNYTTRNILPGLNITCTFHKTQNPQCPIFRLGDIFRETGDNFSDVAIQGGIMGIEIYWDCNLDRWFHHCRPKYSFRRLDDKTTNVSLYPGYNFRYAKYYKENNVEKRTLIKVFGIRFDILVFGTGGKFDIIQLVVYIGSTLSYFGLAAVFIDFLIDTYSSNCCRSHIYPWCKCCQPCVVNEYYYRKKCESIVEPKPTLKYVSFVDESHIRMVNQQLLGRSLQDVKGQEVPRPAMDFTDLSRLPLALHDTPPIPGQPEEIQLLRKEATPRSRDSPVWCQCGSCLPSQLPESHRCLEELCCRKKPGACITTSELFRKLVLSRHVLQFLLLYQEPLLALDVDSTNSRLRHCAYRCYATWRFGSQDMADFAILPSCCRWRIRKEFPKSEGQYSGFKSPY
Description: Ethidium Accumulation Assay 1 (HEK293 cells, ATP-induced ethidium uptake). The class given is cell-based. As to conditions: HEK293 cells expressing human P2X7; 1 mM ATP; sometimes mean of more than one measurement; read-out: Assay 1 (antagonist pIC50 for blocking ATP responses) (converted). As to the method: Eithidium Accumulation Assay 1
Studies were performed using NaCl assay buffer of the following composition: 140 mM NaCl, 10 mM HEPES [4-(2-hydroxyethyl)-1-piperazine-1-ethanesulfonic acid], 5 mM N-methyl-D-glucamine, 5.6 mM KCl, 10 mM D-glucose, 0.5 mM CaCl2 (pH 7.4).
Human Embryonic Kidney (HEK) 293 cells, stably expressing human recombinant P2X7 receptors, were grown in poly-D-lysine pretreated 96 well plates for 18-24 hours.
The cells were washed twice with 350 μl of the assay buffer, before addition of 50 μl of the assay buffer containing the putative P2X7 receptor antagonist compound. (A small amount of dimethyl sulfoxide, for initially dissolving the compound, is optionally used and present in this 50 μl test compound sample.) The cells were then incubated at room temperature (19-21° C.) for 30 min before addition of ATP and ethidium (100 μM final assay concentration). The ATP concentration was chosen to be close to the EC80 for the receptor type and was 1 mM for studies on the human P2X7 receptor. Incubations were continued for 8 or 16 min and were terminated by addition of 25 μl of 1.3M sucrose containing 4 mM of the P2X7 receptor antagonist Reactive Black 5 (Aldrich). […] Antagonist pIC50 values for blocking ATP responses were determined using iterative curve fitting techniques.

Experimental findings from US8501946B2 (Glaxo Group Limited, priority 2009, dated 2013) are described below.

`COc1cccc(-c2nnc3n2CCN(C(=O)c2ccc(F)cc2Cl)C3)c1` [Example 125, 7-[(2-chloro-4-fluorophenyl)carbonyl]-3-[3-(methyloxy)phenyl]-5,6,7,8-tetrahydro[1,2,4]triazolo[4,3-a]pyrazine]: the IC50 was less than 100 nM. Turning to `O=C(c1cccc(Cl)c1Cl)N1CCn2c(nnc2-c2ccccc2)C1` [Example 70, 7-[(2,3-dichlorophenyl)carbonyl]-3-phenyl-5,6,7,8-tetrahydro[1,2,4]triazolo [4,3-a]pyrazine], the IC50 is less than 10 nM. To `O=C(c1ccccc1Cl)N1CCn2c(nnc2-c2cscn2)C1` [Example 103, 7-[(2-chlorophenyl)carbonyl]-3-(1,3-thiazol-4-yl)-5,6,7,8-tetrahydro[1,2,4]triazolo [4,3-a]pyrazine] belongs less than 10 nM; to `O=C(c1ccccc1Cl)N1CCn2c(nnc2-c2ccc(F)cn2)C1` [Example 118, 7-[(2-chlorophenyl)carbonyl]-3-(5-fluoro-2-pyridinyl)-5,6,7,8-tetrahydro[1,2,4]triazolo[4,3-a]pyrazine], less than 100 nM. To `O=C(c1ccc(Cl)cc1C(F)(F)F)N1CCn2c(nnc2-c2cnccn2)C1` [Example 142, 7-{[4-chloro-2-(trifluoromethyl)phenyl]carbonyl}-3-(2-pyrazinyl)-5,6,7,8-tetrahydro[1,2,4]triazolo[4,3-a]pyrazine] belongs less than 100 nM; to `Cc1cccc(-c2nnc3n2CCN(C(=O)c2cccc(C(F)(F)F)c2Cl)C3)n1` [Example 26, 7-{[2-chloro-3-(trifluoromethyl)phenyl]carbonyl}-3-(6-methyl-2-pyridinyl)-5,6,7,8-tetrahydro[1,2,4]triazolo [4,3-a]pyrazine], less than 10 nM; to `O=C(c1ccc(Cl)c(F)c1Cl)N1CCn2c(nnc2-c2ccc(F)cn2)C1` [Example 110, 7-[(2,4-Dichloro-3-fluorophenyl)carbonyl]-3-(5-fluoro-2-pyridinyl)-5,6,7,8-tetrahydro[1,2,4]triazolo[4,3-a]pyrazine], less than 10 nM. As for `O=C(c1cccc(C(F)(F)F)c1Cl)N1CCn2c(nnc2-c2ccccc2)C1` [Example 13, 7-{[2-Chloro-3-(trifluoromethyl)phenyl]carbonyl}-3-phenyl-5,6,7,8-tetrahydro[1,2,4]triazolo[4,3-a]pyrazine], the IC50 was less than 10 nM.

As to `CNc1nnc2n1CCN(C(=O)c1cccc(C(F)(F)F)c1Cl)C2` [Example 21, 7-{[2-chloro-3-(trifluoromethyl)phenyl]carbonyl}-N-methyl-5,6,7,8-tetrahydro[1,2,4]triazolo [4,3-a]pyrazine-3-amine], the IC50 is less than 501 nM. To `O=C(c1ccc(F)cc1Cl)N1CCn2c(nnc2-c2cccc(F)n2)C1` [Example 41, 7-[(2-chloro-4-fluorophenyl)carbonyl]-3-(6-fluoro-2-pyridinyl)-5,6,7,8-tetrahydro[1,2,4]triazolo [4,3-a]pyrazine] belongs less than 501 nM. For `O=C(c1ccc(F)cc1F)N1CCn2c(nnc2-c2ccccn2)C1` [Example 78, 7-[(2,4-difluorophenyl)carbonyl]-3-(2-pyridinyl)-5,6,7,8-tetrahydro[1,2,4]triazolo [4,3-a]pyrazine], the IC50 was less than 100 nM. `O=C(c1ccc(Cl)cc1F)N1CCn2c(nnc2-c2cnccn2)C1` [Example 106, 7-[(4-chloro-2-fluorophenyl)carbonyl]-3-(2-pyrazinyl)-5,6,7,8-tetrahydro[1,2,4]triazolo [4,3-a]pyrazine]: the IC50 is less than 10 nM. For the compound `O=C(c1ccc(Cl)cc1Cl)N1CCn2c(nnc2-c2ccccn2)C1` [Example 76, 7-[(2,4-dichlorophenyl)carbonyl]-3-(2-pyridinyl)-5,6,7,8-tetrahydro[1,2,4]triazolo [4,3-a]pyrazine], the IC50 is less than 10 nM.

Regarding `Cn1nccc1-c1nnc2n1CCN(C(=O)c1cccc(C(F)(F)F)c1Cl)C2` [Example 68, 7-{[2-chloro-3-(trifluoromethyl)phenyl]carbonyl}-3-(1-methyl-1H-pyrazol-5-yl)-5,6,7,8-tetrahydro[1,2,4]triazolo [4,3-a]pyrazine], the IC50 was less than 100 nM.

Consider `Cc1c(C(=O)N2CCn3c(nnc3-c3ncns3)C2)ccc(F)c1F` [Example 202, 7-[(3,4-Difluoro-2-methylphenyl)carbonyl]-3-(1,2,4-thiadiazol-5-yl)-5,6,7,8-tetrahydro[1,2,4]triazolo[4,3-a]pyrazine], for which the IC50 was less than 100 nM. The result for `O=C(c1ccccc1Cl)N1CCn2c(nnc2-c2ccco2)C1` [Example 117, 7-[(2-chlorophenyl)carbonyl]-3-(2-furanyl)-5,6,7,8-tetrahydro[1,2,4]triazolo[4,3-a]pyrazine] reads less than 10 nM.

Turning to `O=C(c1cccc(C(F)(F)F)c1Cl)N1CCn2c(nnc2-c2ccccc2O)C1` [Example 138, 2-(7-{[2-chloro-3-(trifluoromethyl)phenyl]carbonyl}-5,6,7,8-tetrahydro[1,2,4]triazolo[4,3-a]pyrazin-3-yl)phenol], the IC50 is less than 10 nM. As to `O=C(c1ccc(Cl)c(F)c1Cl)N1CCn2c(nnc2-c2ccncn2)C1` [Example 112, 7-[(2,4-Dichloro-3-fluorophenyl)carbonyl]-3-(4-pyrimidinyl)-5,6,7,8-tetrahydro[1,2,4]triazolo[4,3-a]pyrazine], the IC50 was less than 100 nM. To `O=C(c1ccc(F)cc1Cl)N1CCn2c(nnc2-c2ccccc2O)C1` [Example 128, 2-{7-[(2-chloro-4-fluorophenyl)carbonyl]-5,6,7,8-tetrahydro[1,2,4]triazolo[4,3-a]pyrazin-3-yl}phenol] belongs less than 501 nM. Turning to `O=C(c1cccc(C(F)(F)F)c1F)N1CCn2c(nnc2-c2ccccn2)C1` [Example 91, 7-{[2-fluoro-3-(trifluoromethyl)phenyl]carbonyl}-3-(2-pyridinyl)-5,6,7,8-tetrahydro[1,2,4]triazolo [4,3-a]pyrazine], the IC50 is less than 10 nM.

Turning to `O=C(c1ccccc1Cl)N1CCn2c(nnc2-c2ccccn2)C1` [Example 75, 7-[(2-chlorophenyl)carbonyl]-3-(2-pyridinyl)-5,6,7,8-tetrahydro[1,2,4]triazolo [4,3-a]pyrazine], the IC50 was less than 100 nM. As for `Cn1cccc1-c1nnc2n1CCN(C(=O)c1cccc(Cl)c1Cl)C2` [Example 48, 7-[(2,3-dichlorophenyl)carbonyl]-3-(1-methyl-1H-pyrrol-2-yl)-5,6,7,8-tetrahydro[1,2,4]triazolo [4,3-a]pyrazine], the IC50 was less than 100 nM. With `N#Cc1ccccc1C(=O)N1CCn2c(nnc2-c2ccccn2)C1` [Example 87, 2-{[3-(2-pyridinyl)-5,6-dihydro[1,2,4]triazolo[4,3-a]pyrazin-7(8H)-yl]carbonyl}benzonitrile], the IC50 is less than 100 nM. The result for `O=C(c1cccc(C(F)(F)F)c1Cl)N1CCn2c(nnc2-c2cccc(F)n2)C1` [Example 53, 7-{[2-chloro-3-(trifluoromethyl)phenyl]carbonyl}-3-(6-fluoro-2-pyridinyl)-5,6,7,8-tetrahydro[1,2,4]triazolo [4,3-a]pyrazine] reads less than 10 nM; that for `CCc1nnc2n1CCN(C(=O)c1cccc(Cl)c1Cl)C2` [Example 5, 7-[(2,3-dichlorophenyl)carbonyl]-3-ethyl-5,6,7,8-tetrahydro[1,2,4]triazolo [4,3-a]pyrazine], less than 100 nM; that for `O=C(c1ccc(F)cc1Cl)N1CCn2c(nnc2-c2cccc3cc[nH]c23)C1` [Example 132, 7-[(2-chloro-4-fluorophenyl)carbonyl]-3-(1H-indol-7-yl)-5,6,7,8-tetrahydro[1,2,4]triazolo[4,3-a]pyrazine], less than 100 nM. The result for `O=C(c1cccc(C(F)(F)F)c1Cl)N1CCn2c(nnc2-c2ncccn2)C1` [Example 50, 7-{[2-chloro-3-(trifluoromethyl)phenyl]carbonyl}-3-(2-pyrimidinyl)-5,6,7,8-tetrahydro[1,2,4]triazolo [4,3-a]pyrazine] reads less than 10 nM. Consider `O=C(c1ccc(F)cc1Cl)N1CCn2c(nnc2-c2cccnn2)C1` [Example 59, 7-[(2-chloro-4-fluorophenyl)carbonyl]-3-(3-pyridazinyl)-5,6,7,8-tetrahydro[1,2,]triazolo [4,3-a]pyrazine], for which the IC50 was less than 501 nM. The result for `Cn1ccc(-c2nnc3n2CCN(C(=O)c2ccc(F)cc2Cl)C3)n1` [Example 72, 7-[(2-chloro-4-fluorophenyl)carbonyl]-3-(1-methyl-1H-pyrazol-3-yl)-5,6,7,8-tetrahydro[1,2,4]triazolo [4,3-a]pyrazine] reads less than 100 nM.
